Measurements from patent US20140288043A1, “PYRAZOLOPYRIDINE COMPOUNDS” (Genentech, Inc., priority 2013, published 2014).

Target: LRRK2 (Homo sapiens, UniProt Q5S007)
Assay: LRRK2 protein kinase assay ([γ-33P] ATP, peptide substrate), KI values of Table 1
Assay type: biochemical
Conditions: LRRK2 affinity values
Description: All LRRK2 protein kinases were of human origin and were sourced from Invitrogen Corporation (Carlsbad, Calif. 92008 USA) unless otherwise indicated. The active mutant used was recombinant human, catalytic domain (amino acids 970-2527) containing a G2019S mutation, GST-tagged, expressed in insect cells (Invitrogen Cat#PV4881). The wild type used was recombinant human, catalytic domain (amino acids 970-2527) GST-tagged, expressed in insect cells (Invitrogen Cat#PV4873). The kinase dead mutant used was recombinant human, catalytic domain (amino acids 970-2527) containing a D1994A mutation, GST-tagged, expressed in insect cells (Invitrogen Cat#PM4041AE). No special measures were taken to activate any of the kinases.
All assays were carried out at room temperature (˜21° C.) and were linear with respect to time and enzyme concentration under the conditions used. Assays were performed for 180 min in a 96 well format. LRRK2 was present at a concentration of approximately 5 nM. The enzyme was diluted and assayed in 50 mM Tris-HCl pH7.5, 0.1 mM EGTA, 1 mM DTT and 10 mM MgCl2. The concentration of magnesium chloride in the assay was 10 mM. The [γ-33P] ATP (0.4 μCi/well) was used at 134 uM for G2019S mutant and at 57 μM for the wild type kinase in order to be at Km. The peptide substrate in the assay was […] at 100 μM.
The assays were initiated with Mg/ATP and stopped by the addition of 25 μl/well 50% orthophosphoric acid. Reactions were harvested onto Whatman P81 Unifilter Plates (Fisher Scientific. Loughborough, LE115RG, UK. Cat# FDU-105-020U) using a Tomtec harvester. (Tomtec Hamden, Conn. 06514. USA) Plates were counted using a Perkin Elmer Top Count NX7. (Perkin Elmer, Shelton Conn. 06484-4794 USA)
IC50 values of inhibitors were determined after carrying out assays at 10 different concentrations of each compound in duplicate.

Chain of LRRK2 (Q5S007 whole entry G2019S, form open): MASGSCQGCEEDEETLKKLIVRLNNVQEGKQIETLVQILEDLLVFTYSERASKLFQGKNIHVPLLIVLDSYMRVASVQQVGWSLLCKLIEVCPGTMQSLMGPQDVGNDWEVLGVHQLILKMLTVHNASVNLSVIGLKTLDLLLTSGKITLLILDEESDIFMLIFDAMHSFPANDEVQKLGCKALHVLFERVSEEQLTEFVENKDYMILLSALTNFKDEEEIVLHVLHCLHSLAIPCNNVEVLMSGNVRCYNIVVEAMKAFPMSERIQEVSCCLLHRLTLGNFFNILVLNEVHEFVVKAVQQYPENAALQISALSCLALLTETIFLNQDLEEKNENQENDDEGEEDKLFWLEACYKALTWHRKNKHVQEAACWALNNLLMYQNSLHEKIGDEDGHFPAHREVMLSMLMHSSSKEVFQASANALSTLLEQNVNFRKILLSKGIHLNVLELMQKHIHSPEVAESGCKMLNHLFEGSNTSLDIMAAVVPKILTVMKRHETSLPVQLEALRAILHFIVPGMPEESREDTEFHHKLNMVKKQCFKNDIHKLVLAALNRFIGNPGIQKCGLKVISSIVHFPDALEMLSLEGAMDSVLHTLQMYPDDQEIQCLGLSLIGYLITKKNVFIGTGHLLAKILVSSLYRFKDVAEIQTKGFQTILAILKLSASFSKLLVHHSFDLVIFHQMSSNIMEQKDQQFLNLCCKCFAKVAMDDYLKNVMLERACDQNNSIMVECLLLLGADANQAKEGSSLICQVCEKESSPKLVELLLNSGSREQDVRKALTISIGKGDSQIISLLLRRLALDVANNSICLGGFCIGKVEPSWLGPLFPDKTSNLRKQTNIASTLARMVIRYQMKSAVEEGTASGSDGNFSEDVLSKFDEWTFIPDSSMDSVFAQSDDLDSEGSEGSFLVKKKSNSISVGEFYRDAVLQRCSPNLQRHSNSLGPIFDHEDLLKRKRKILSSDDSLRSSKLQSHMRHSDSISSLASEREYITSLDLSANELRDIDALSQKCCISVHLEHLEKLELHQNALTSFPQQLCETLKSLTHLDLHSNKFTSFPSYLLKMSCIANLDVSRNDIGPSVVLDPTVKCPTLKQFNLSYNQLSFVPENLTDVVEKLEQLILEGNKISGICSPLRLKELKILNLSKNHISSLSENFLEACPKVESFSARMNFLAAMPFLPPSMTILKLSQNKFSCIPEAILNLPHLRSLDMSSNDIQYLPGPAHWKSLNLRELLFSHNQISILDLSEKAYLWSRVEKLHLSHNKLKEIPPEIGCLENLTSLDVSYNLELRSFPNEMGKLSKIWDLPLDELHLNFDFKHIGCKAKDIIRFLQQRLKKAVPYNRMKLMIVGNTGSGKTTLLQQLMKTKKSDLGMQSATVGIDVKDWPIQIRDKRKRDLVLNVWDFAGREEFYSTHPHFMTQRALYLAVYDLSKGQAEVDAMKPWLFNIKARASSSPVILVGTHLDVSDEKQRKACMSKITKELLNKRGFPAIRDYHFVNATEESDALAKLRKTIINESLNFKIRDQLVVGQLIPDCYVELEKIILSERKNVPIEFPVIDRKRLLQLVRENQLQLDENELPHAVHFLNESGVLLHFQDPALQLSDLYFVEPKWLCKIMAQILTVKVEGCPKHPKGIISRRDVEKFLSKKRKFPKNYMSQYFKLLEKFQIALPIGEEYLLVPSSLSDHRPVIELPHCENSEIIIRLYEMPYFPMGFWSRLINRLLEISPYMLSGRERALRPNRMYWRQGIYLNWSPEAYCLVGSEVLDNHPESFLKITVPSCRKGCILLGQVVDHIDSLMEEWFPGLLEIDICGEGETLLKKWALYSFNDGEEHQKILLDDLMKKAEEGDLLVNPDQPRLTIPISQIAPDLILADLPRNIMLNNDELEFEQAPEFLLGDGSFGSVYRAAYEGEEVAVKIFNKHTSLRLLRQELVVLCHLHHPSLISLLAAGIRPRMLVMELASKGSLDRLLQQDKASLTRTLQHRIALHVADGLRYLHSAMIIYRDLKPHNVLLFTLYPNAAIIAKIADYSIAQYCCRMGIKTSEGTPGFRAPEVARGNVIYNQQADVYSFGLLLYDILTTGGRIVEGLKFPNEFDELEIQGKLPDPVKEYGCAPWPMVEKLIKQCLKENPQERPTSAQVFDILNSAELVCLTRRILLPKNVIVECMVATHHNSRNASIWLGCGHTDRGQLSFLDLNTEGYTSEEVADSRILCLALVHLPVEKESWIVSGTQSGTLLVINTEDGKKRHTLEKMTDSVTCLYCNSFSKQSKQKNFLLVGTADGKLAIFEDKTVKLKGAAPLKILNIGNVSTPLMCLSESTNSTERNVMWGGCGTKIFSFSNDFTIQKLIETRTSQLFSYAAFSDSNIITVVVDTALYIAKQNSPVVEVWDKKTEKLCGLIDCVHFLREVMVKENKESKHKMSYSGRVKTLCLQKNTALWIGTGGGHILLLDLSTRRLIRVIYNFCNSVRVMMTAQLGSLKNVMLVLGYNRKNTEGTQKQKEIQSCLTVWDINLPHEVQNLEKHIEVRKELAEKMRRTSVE

Cc1nc(-c2n[nH]c3ccnc(NC4CCOCC4)c23)cc(C(F)(F)F)n1 [Compound 71, 3-(2-methyl-6-(trifluoromethyl)pyrimidin-4-yl)-N-(tetrahydro-2H-pyran-4-yl)-1H-pyrazolo[4,3-c]pyridin-4-amine]
Ki: 6.7 nM

CC(C)Nc1nccc2[nH]nc(-c3cc(Cl)ccn3)c12 [Compound 30, 3-(4-chloropyridin-2-yl)-N-isopropyl-1H-pyrazolo[4,3-c]pyridin-4-amine]
Ki: 2.5 nM

CC(C)Nc1nccc2[nH]nc(-c3cc(C4CCN(C)CC4)ccn3)c12 [Compound 40, N-isopropyl-3-(4-(1-methylpiperidin-4-yl)pyridin-2-yl)-1H-pyrazolo[4,3-c]pyridin-4-amine]
Ki: 8.4 nM

CCNc1nccc2[nH]nc(-c3cc(C(F)(F)F)ccn3)c12 [Compound 21, N-ethyl-3-(4-(trifluoromethyl)pyridin-2-yl)-1H-pyrazolo[4,3-c]pyridin-4-amine]
Ki: 9.4 nM

Cc1cc2[nH]nc(-c3cc(C(F)(F)F)ccn3)c2c(NC2CCOCC2)n1 [Compound 51, 6-methyl-N-(tetrahydro-2H-pyran-4-yl)-3-(4-(trifluoromethyl)pyridin-2-yl)-1H-pyrazolo[4,3-c]pyridin-4-amine]
Ki: 39.9 nM

CC(C)Nc1nccc2[nH]nc(-c3nccc(N4CCOCC4)n3)c12 [Compound 2, N-isopropyl-3-(4-morpholinopyrimidin-2-yl)-1H-pyrazolo[4,3-c]pyridin-4-amine]
Ki: 78.5 nM

CC(C)Nc1nccc2[nH]nc(-c3cc(S(C)(=O)=O)ccn3)c12 [Compound 72, N-isopropyl-3-(4-(methylsulfonyl)pyridin-2-yl)-1H-pyrazolo[4,3-c]pyridin-4-amine]
Ki: 6 nM

CCc1cc(-c2n[nH]c3ccnc(NC(C)C)c23)nn1C [Compound 11, 3-(5-ethyl-1-methyl-1H-pyrazol-3-yl)-N-isopropyl-1H-pyrazolo[4,3-c]pyridin-4-amine]
Ki: 3.5 nM

CCNc1nccc2[nH]nc(-c3cn(CCOC)nn3)c12 [Compound 14, N-ethyl-3-(1-(2-methoxyethyl)-1H-1,2,3-triazol-4-yl)-1H-pyrazolo[4,3-c]pyridin-4-amine]
Ki: 22.5 nM

FC(F)(F)c1ccnc(-c2n[nH]c3ccnc(NC4CCOCC4)c23)c1 [Compound 23, N-(tetrahydro-2H-pyran-4-yl)-3-(4-(trifluoromethyl)pyridin-2-yl)-1H-pyrazolo[4,3-c]pyridin-4-amine]
Ki: 0.4 nM

CCNc1nccc2[nH]nc(-c3ccncn3)c12 [Compound 19, N-ethyl-3-(pyrimidin-4-yl)-1H-pyrazolo[4,3-c]pyridin-4-amine]
Ki: 152 nM

CC(C)Nc1nccc2[nH]nc(-c3ccccn3)c12 [Compound 13, N-isopropyl-3-(pyridin-2-yl)-1H-pyrazolo[4,3-c]pyridin-4-amine]
Ki: 11 nM

CC(C)Nc1nccc2[nH]nc(-c3cc(C(=O)N(C)C)ncn3)c12 [Compound 62, 6-(4-(isopropylamino)-1H-pyrazolo[4,3-c]pyridin-3-yl)-N,N-dimethylpyrimidine-4-carboxamide]
Ki: 193 nM

FC1(F)CCC(Nc2nccc3[nH]nc(-c4cc(C(F)(F)F)ncn4)c23)CC1 [Compound 66, N-(4,4-difluorocyclohexyl)-3-(6-(trifluoro-methyl)pyrimidin-4-yl)-1H-pyrazolo[4,3-c]pyridin-4-amine]
Ki: 22.9 nM

CC(C)Nc1nccc2[nH]nc(-c3cc(S(=O)(=O)C(C)C)ccn3)c12 [Compound 74, N-isopropyl-3-(4-(isopropylsulfonyl)pyridin-2-yl)-1H-pyrazolo[4,3-c]pyridin-4-amine]
Ki: 25.8 nM

CC(C)Nc1nccc2[nH]nc(-c3cc(C(F)(F)F)ncn3)c12 [Compound 24, N-isopropyl-3-(6-(trifluoromethyl)pyrimidin-4-yl)-1H-pyrazolo[4,3-c]pyridin-4-amine]
Ki: 9.7 nM

CCNc1nccc2[nH]nc(-c3cn(C)nn3)c12 [Compound 10, N-ethyl-3-(1-methyl-1H-1,2,3-triazol-4-yl)-1H-pyrazolo[4,3-c]pyridin-4-amine]
Ki: 14.5 nM

CC(C)Nc1nccc2[nH]nc(-n3cc(C(F)(F)F)cn3)c12 [Compound 32, N-isopropyl-3-(4-(trifluoromethyl)-1H-pyrazol-1-yl)-1H-pyrazolo[4,3-c]pyridin-4-amine]
Ki: 9.1 nM

CC(C)Nc1nccc2[nH]nc(-c3cc(C4CCCO4)ncn3)c12 (stereo not shown) [Compound 54, N-isopropyl-3-(6-(tetrahydrofuran-2-yl)pyrimidin-4-yl)-1H-pyrazolo[4,3-c]pyridin-4-amine]
Ki: 28.7 nM

CC(C)Nc1nccc2[nH]nc(-c3cc(-c4cccnc4F)ccn3)c12 [Compound 37, 3-(2-fluoro-[3,4′-bipyridin]-2′-yl)-N-isopropyl-1H-pyrazolo[4,3-c]pyridin-4-amine]
Ki: 3.1 nM

FC(F)(F)c1cc(-c2n[nH]c3ccnc(NC4CC5CCC(C4)O5)c23)ncn1 (stereo not shown) [Compound 77, N-(8-oxabicyclo[3.2.1]octan-3-yl)-3-(6-(trifluoromethyl)pyrimidin-4-yl)-1H-pyrazolo[4,3-c]pyridin-4-amine]
Ki: 22.6 nM

Clc1ccnc(-c2n[nH]c3ccnc(NC4CCOCC4)c23)c1 [Compound 29, 3-(4-chloropyridin-2-yl)-N-(tetrahydro-2H-pyran-4-yl)-1H-pyrazolo[4,3-c]pyridin-4-amine]
Ki: 0.7 nM

CC(C)Nc1nccc2[nH]nc(-c3cc(C#N)ccn3)c12 [Compound 31, 2-(4-(isopropylamino)-1H-pyrazolo[4,3-c]pyridin-3-yl)isonicotinonitrile]
Ki: 2.3 nM

Cc1c(-c2ccnc(-c3n[nH]c4ccnc(NC(C)C)c34)c2)cnn1C [Compound 44, 3-(4-(1,5-dimethyl-1H-pyrazol-4-yl)pyridin-2-yl)-N-isopropyl-1H-pyrazolo[4,3-c]pyridin-4-amine]
Ki: 1.1 nM

CC(C)Nc1nccc2[nH]nc(-c3cc(C4CCOC4)ccn3)c12 (stereo not shown) [Compound 49, N-isopropyl-3-(4-(tetrahydrofuran-3-yl)pyridin-2-yl)-1H-pyrazolo[4,3-c]pyridin-4-amine]
Ki: 4.6 nM

CS(=O)(=O)c1ccnc(-c2n[nH]c3ccnc(NC4CCOCC4)c23)c1 [Compound 69, 3-(4-(methylsulfonyl)pyridin-2-yl)-N-(tetrahydro-2H-pyran-4-yl)-1H-pyrazolo[4,3-c]pyridin-4-amine]
Ki: 6.8 nM

CC(C)Nc1nccc2[nH]nc(-c3cn(C)nn3)c12 [Compound 8, N-isopropyl-3-(1-methyl-1H-1,2,3-triazol-4-yl)-1H-pyrazolo[4,3-c]pyridin-4-amine]
Ki: 5.2 nM

Cc1nn(C)cc1-c1ccnc(-c2n[nH]c3ccnc(NC(C)C)c23)c1 [Compound 45, 3-(4-(1,3-dimethyl-1H-pyrazol-4-yl)pyridin-2-yl)-N-isopropyl-1H-pyrazolo[4,3-c]pyridin-4-amine]
Ki: 1.3 nM

CC(C)Nc1nccc2[nH]nc(-c3cc(-c4cnn(C)c4)ccn3)c12 [Compound 35, N-isopropyl-3-(4-(1-methyl-1H-pyrazol-4-yl)pyridin-2-yl)-1H-pyrazolo[4,3-c]pyridin-4-amine]
Ki: 0.8 nM

CC(C)n1cc(-c2n[nH]c3ccnc(NC4CCOCC4)c23)nn1 [Compound 5, 3-(1-isopropyl-1H-1,2,3-triazol-4-yl)-N-(tetrahydro-2H-pyran-4-yl)-1H-pyrazolo[4,3-c]pyridin-4-amine]
Ki: 1.7 nM

CCc1cc(-c2n[nH]c3ccnc(NC4CCOCC4)c23)nn1C [Compound 1, 3-(5-ethyl-1-methyl-1H-pyrazol-3-yl)-N-(tetrahydro-2H-pyran-4-yl)-1H-pyrazolo[4,3-c]pyridin-4-amine]
Ki: 0.5 nM

CC(C)Nc1nccc2[nH]nc(-c3cc(C4CCOCC4)ncn3)c12 [Compound 47, N-isopropyl-3-(6-(tetrahydro-2H-pyran-4-yl)pyrimidin-4-yl)-1H-pyrazolo[4,3-c]pyridin-4-amine]
Ki: 3.8 nM

FC1(F)CCC(Nc2nccc3[nH]nc(-c4ccccn4)c23)CC1 [Compound 34, N-(4,4-difluorocyclohexyl)-3-(pyridin-2-yl)-1H-pyrazolo[4,3-c]pyridin-4-amine]
Ki: 6.4 nM

CC(C)Nc1nccc2[nH]nc(-c3cc(C(F)(F)F)ccn3)c12 [Compound 20, N-isopropyl-3-(4-(trifluoromethyl)pyridin-2-yl)-1H-pyrazolo[4,3-c]pyridin-4-amine]
Ki: 1.6 nM

Cc1cccc(-c2n[nH]c3ccnc(NC4CCOCC4)c23)n1 [Compound 28, 3-(6-methylpyridin-2-yl)-N-(tetrahydro-2H-pyran-4-yl)-1H-pyrazolo[4,3-c]pyridin-4-amine]
Ki: 1.8 nM

CC(C)Nc1nccc2[nH]nc(-c3cc(-c4ccn(C)n4)ccn3)c12 [Compound 46, N-isopropyl-3-(4-(1-methyl-1H-pyrazol-3-yl)pyridin-2-yl)-1H-pyrazolo[4,3-c]pyridin-4-amine]
Ki: 1 nM

CC(C)Nc1nccc2[nH]nc(-c3cc(N4C[C@@H](F)[C@H](F)C4)ccn3)c12 [Compound 59, 3-(4-((3R,4R)-3,4-difluoropyrrolidin-1-yl)pyridin-2-yl)-N-isopropyl-1H-pyrazolo[4,3-c]pyridin-4-amine]
Ki: 3.9 nM
